Source: a melting point compilation (Tetko et al.; mined from patent text by program, amines drawn as free bases though some values may be those of a salt)

melting point [°C]	Structure (SMILES)
115 to 117	COc1ccc(OCC(O)CNCCNc2c(C)c(=O)n(C)c(=O)n2C)cc1 (stereo not drawn)
233 to 234	CC1(C)CC(=C(c2ccc(O)cc2)c2ccc(C#CCCC(=O)O)cc2)CC(C)(C)C1
235	COC(=O)C1=C(C)Nc2n[nH]cc2C1c1ccccc1Cl (stereo not drawn)
50	CCOC(=O)c1cc(C#N)cc(C)n1
206 to 210	O=C1NC(=S)NC1Cc1c[nH]c2ccccc12 (stereo not drawn)
269 to 272	Cn1cc(-c2ncc(-c3ccc4cc(OCC(=O)O)ccc4c3)o2)c2ccccc21
44 to 45	CCOC(=O)c1c(CN(CC)CC)nc2n(Cc3ccccc3)c3ccccc3n12
126	CC(c1cc2ccccc2s1)N(OCc1ccccc1)C(N)=O (stereo not drawn)
132 to 134	O=C1Cc2ccc(SCc3ccccc3)cc2N1
94	CCCCS(=O)(=O)Oc1ccc(CCOc2ccc(/C=C(\OCC)C(=O)O)cc2OC)cc1
151 to 153	CN1CCN(C(=O)CC2CN=C(c3cc4cccc(N(C)S(=O)(=O)c5cccs5)c4[nH]3)S2)CC1 (stereo not drawn)
140 to 142	CCCCCCCCCCCCCCCc1cc2ccc(C(=O)O)cc2[nH]1
60 to 65	O=CC1CCSc2[nH]c3ccccc3c21 (stereo not drawn)
192	O=C(CC(=O)c1cccc(C(F)(F)F)c1NC(=O)CCl)Nc1nccs1
135 to 137	COc1ccc(NN=C(Sc2ccc(F)cc2)C(C)=O)cc1
97.7 to 99.6	CCCCCCC(O)CCCCCCCCCCC(=O)NCC(O)CNCCO (stereo not drawn)
145 to 149	CC(C(=O)O)c1ccc(-c2ccc(Cl)cc2F)c(O)c1 (stereo not drawn)
45 to 48	CC(=O)c1cc(OCC2CO2)ccc1OCc1ccccc1 (stereo not drawn)
179	Cc1nc(-c2ccccc2)sc1C(=O)NCc1ccc(OC(C)(C)C(=O)O)cc1
148 to 150	CCC(=O)NCC=C1CCc2ccc3ncoc3c21

melting point [°C]	Structure (SMILES)
258	COC(=O)CCCc1nc(Cl)c2c(n1)[nH]c1ccccc12
209 to 210	O=C(Cc1ccccc1C(=O)O)Nc1cccc(/C=C/c2nc(C3CCCC3)cs2)c1
86 to 88	O=C(NCCO)c1ccc(-c2ccccn2)cc1
46 to 48	COC(=O)CC[C@@H](CF)NC(=O)OCc1ccccc1
126 to 127	O=C(c1ccccc1)n1c(=O)c(F)cn(C2CC(O)C(CO)O2)c1=O (stereo not drawn)
80	CCOC(=O)C1(Nc2ccc(Oc3ccccc3)cc2)CC1
295	COc1ccc(-c2nnc(NC3CCN(Cc4ccc(C(=O)O)cc4)CC3)c3cc(OC)ccc23)cc1
283 to 292	CC(C)c1ccc2nc3ccc(C(=O)NCCc4cccnc4)cn3c(=O)c2c1
197	CCN(CC)C(=O)CC1CCN(Cc2cnc3cc(NC(=O)c4ccc(-c5ccc(F)cc5)cc4)c(C)cc3c2)CC1
170 to 173	O=C(OCc1ccc[nH]c1=O)c1ccc(F)cc1
50 to 60	CC(C=CC(=O)NCCCN1CCCCC1)=CCc1ccc(Cl)c(Cl)c1
140 to 142	CCc1cc(NC(=O)c2nnnn2Cc2ccc(OC)cc2)c(O)c(C(C)=O)c1
168	COc1cccc2c(O)c(C(=O)NCC(=O)O)ncc12
70 to 90	Cc1cc(OCC(=O)NCc2ccccc2)ccc1N1CC(=O)NS1(=O)=O
76	CCN(CC)C(=O)Oc1cc(-c2ccncc2)nc2ccccc12
124 to 128	Cc1[nH]cnc1CCCCNC(=O)c1ccccc1
> 300	Nc1nc(Nc2ccc3nc[nH]c3c2)sc1C(=O)c1cc(Cl)sc1Cl
199 to 201	CCCCSCC(=O)c1cc2[nH]c(=O)[nH]c2cc1Cl
118 to 119	O=C1NCCc2c(-c3ccc(Cl)c(C(F)(F)F)c3)[nH]c3cccc1c23
152 to 153	Cc1nc(N2CCN(Cc3ccccc3)C2=O)sc1C(=O)NCc1ccc(F)c(F)c1

The next lines start with the compound.

Structure (SMILES)	melting point [°C]
COc1ccc(C2=NN(c3ccc(CCO)cc3)C(=O)[C@H]3CC=CC[C@@H]23)cc1OC (relative stereo)	137 to 139
COc1ccc([N+](=O)[O-])c(C=O)c1	89 to 90
O=C(NCCN1CCCC1)c1ccc(-c2ccc3nnn(Cc4ccc5ncccc5c4)c3n2)cc1F	183 to 186
COc1c(N2CC(C)C(C)(N)C2)c(F)cc2c(=O)c(C(=O)O)cn(C3CC3F)c12 (stereo not drawn)	195 to 196
O=S(=O)(/C=C/c1ccsc1)CS(=O)(=O)/C=C/c1ccsc1	150 to 152
O=C1C(=O)c2c(nc3cc(Cl)ccn23)-c2ccccc21	> 300
Cc1nnsc1NC(=O)Nc1ccc(-n2nc(C(F)(F)F)cc2C2CC2)cc1	124 to 128
COc1cc(OCc2ccccn2)ccc1/C=C/c1cc(/C=C/c2cc3ccccc3o2)n[nH]1	199 to 201
c1ccc(-c2ccc(OCC3CO3)cc2)cc1 (stereo not drawn)	80.2 to 82.9
O=C(c1ccc(C2=CCCc3ccccc32)cc1)N1Cc2cccn2Cc2ccccc21	81
CC(C)n1nc(-c2nc(Br)c(N)nc2-c2ccccc2)ccc1=O	204 to 206
Cc1ccc(C(=O)N[C@@H]2COc3c(C)ccc(N4CCN(C)CC4)c3C2)cc1	191 to 192
CN1Cc2c(N)ncn2-c2ccccc2C1=O	202 to 204
Cn1c(C(F)(F)F)cc(=O)n(Cc2cc(I)cc(Cl)c2Cl)c1=O	142 to 144
Cn1c(=O)cc(CCc2ccc(Cl)s2)c2cc(C(N)(c3ccc(Cl)cc3)c3cccnc3)ccc21 (stereo not drawn)	100
CC(C)(C)NC(=O)[C@@H]1CCCN1C(=O)[C@@H](O)[C@H](Cc1ccccc1)NC(=O)[C@H](CC(N)=O)NC(=O)COc1ccc(NC(=O)CN2CCOCC2)cc1	121 to 127
NC(=O)c1ccc(-c2ccc3nnn(Cc4ccc5ncccc5c4)c3n2)cc1	229 to 231
CC(C(=O)O)C1CCC(C)(CCC2(C)C(C)CCC3(C)C(C)(C)CCCC23O)OO1 (stereo not drawn)	157 to 159
CS(=O)c1ccc(-n2cnc3ccc(-c4nnc(N)o4)cc32)cc1 (stereo not drawn)	290 to 291
CC(=O)OCCOCCN1CCC(CNC(=O)[C@@H]2CCCN2S(=O)(=O)c2ccc(Cl)c(COc3cccc4c(-n5ccnc5)cc(C)nc34)c2Cl)CC1	90
CC1(C)COC(=O)N1c1nc(-c2csc(C#N)c2)cs1	249 to 252

Structure (SMILES)	melting point [°C]
CCOc1csc(C2OC(=O)NC2=O)c1 (stereo not drawn)	144 to 146
OCCNc1ccc2nnn(Cc3ccc4ncccc4c3)c2n1	184 to 186
COc1cc(Cl)cc(Cl)c1C1=NC(C)(C)CO1	45
Nc1ccc2c(c1)C(=O)C1(CC1)S2	148 to 150
CN1C(=O)C(c2ccc(OC(F)F)cc2)(c2ccc(F)c(CCCC#N)c2)N=C1N (stereo not drawn)	65 to 70
COc1cc(C=O)cc(OC)c1OCc1ccc([N+](=O)[O-])cc1	148 to 149
N#CC(=Cc1ccc(Cl)cc1Cl)n1cncn1	156 to 160
NC(=O)c1ccccc1NC(=O)c1cccnc1	220 to 222
OCCCc1cc(-c2ccc(Cl)cc2)n(-c2c(Cl)cncc2Cl)n1	108 to 110
N#CC1(N2C(=O)c3cccc(Cl)c3C2=O)CCCCC1	115 to 116
C=C1C(=O)c2cc(C)ccc2OC1c1ccccc1 (stereo not drawn)	57 to 63
Cn1c([N+](=O)[O-])cnc1-c1nc(CCl)cs1	160 to 162
CC#Cc1[nH]c(=O)n2c1CN(C)Cc1cc(F)ccc1-2	219 to 220
Nc1c([N+](=O)[O-])sc2cccc(Cl)c12	174 to 175
Cc1cc(O)n2ncc([N+](=O)[O-])c2n1	290
CCc1nc2c(N)nc3cc(/C=C/C(=O)N4CCOCC4)ccc3c2n1CC1CCOCC1	> 260
NC1=CC(=O)CC(c2ccsc2)C1 (stereo not drawn)	142 to 143
CN1CC(N2CC(=O)NC2=O)CC2c3cccc4[nH]cc(c34)CC21 (stereo not drawn)	295 to 297
NC(=O)COc1ccccc1N	117
CCCC(=O)NC1C=CC(CO)C1 (stereo not drawn)	71 to 72
Cc1ccccc1NC(=O)NCc1cccc2c1C(=O)N(C1CCC(=O)NC1=O)C2=O (stereo not drawn)	> 260

Structure (SMILES)	melting point [°C]
O=C(C=CCl)c1cc(F)c(Cl)cc1Cl	65 to 70
O=P(c1ccccc1)(c1ccccc1)C(O)C(O)P(=O)(c1ccccc1)c1ccccc1 (stereo not drawn)	211 to 214
CC1(C)C(=O)N(c2ccc(C#N)c(C(F)(F)F)c2)C(=O)N1Cc1ccccc1Br	56 to 58
C=CCOc1ccc2c(c1)CCC(=O)N2	123 to 125
S=C1Cc2c([nH]c3ccc(Br)cc23)-c2ccccc2N1	> 330
O=C1NC(=O)C(=Cc2ccc3c(c2)CCC(Cc2ccc(OCc4ccccc4)cc2)O3)S1 (stereo not drawn)	245 to 250
COc1c(OC)c(O)c2c(=O)c3ccc(O)c(OC)c3[nH]c2c1OC	214 to 215
O=C1NCC=Cc2c1[nH]c(Br)c2Br	170 to 175
Cc1cccc(-c2[nH]c(C(C)C)nc2-c2cccc(-c3ccc(OC(F)(F)F)cc3)c2)n1	120 to 122
O=C(Nc1cc(-c2c(-c3ccc(Cl)cc3)nc3cccnn23)ccn1)c1ccccc1	218 to 219
C[Si](C)(Cc1ccccc1)CN1C(=O)c2ccccc2C1=O	91 to 92
O=C(CCCl)N1c2ccccc2CCc2ccccc21	107 to 108
CC12CCC(=O)C=C1CCC1C2=CCC2(C)C(C#N)=CCC12 (stereo not drawn)	148 to 150
COc1ccc(CC=[N+]([O-])C(C)(C)C)cc1	90 to 91
COC(=O)C(=CNc1ccc(O)cc1)C(=O)C=CC1CC=CCC1 (stereo not drawn)	151 to 153
Cc1c(CCl)sc2cc(Br)ccc12	92 to 93
Cc1ccc(OCc2ccccc2)c(C(CCN2CC3(C)CC3(C)C2)c2ccccc2)c1 (stereo not drawn)	93 to 95
CS(=O)c1ccc(-c2nn(Cc3ccc(F)cc3)c(=O)cc2-c2ccc(F)cc2)cc1 (stereo not drawn)	198
CC=C1CCC(C(=O)OCCOC(=O)C2=C(C)C(=CC)CC2)=C1C	95 to 97
Cc1c2c(c(C#N)c(=O)n1C)-c1ccccc1C2=O	271 to 274
Fc1ccc(-c2cccc(-c3cn([C@H]4CN5CCC4CC5)nn3)c2)cn1	164
